Test results reported in paper PMC10601436 (ACS Omega, 2023).
Peptide text beside a SMILES is read from it.

Each compound was assayed against hDPP-IV (Homo sapiens, UniProt P27487) (assay: DPP-IV inhibitory assay).
Format: biochemical

hDPP-IV, sequence (P27487 whole entry): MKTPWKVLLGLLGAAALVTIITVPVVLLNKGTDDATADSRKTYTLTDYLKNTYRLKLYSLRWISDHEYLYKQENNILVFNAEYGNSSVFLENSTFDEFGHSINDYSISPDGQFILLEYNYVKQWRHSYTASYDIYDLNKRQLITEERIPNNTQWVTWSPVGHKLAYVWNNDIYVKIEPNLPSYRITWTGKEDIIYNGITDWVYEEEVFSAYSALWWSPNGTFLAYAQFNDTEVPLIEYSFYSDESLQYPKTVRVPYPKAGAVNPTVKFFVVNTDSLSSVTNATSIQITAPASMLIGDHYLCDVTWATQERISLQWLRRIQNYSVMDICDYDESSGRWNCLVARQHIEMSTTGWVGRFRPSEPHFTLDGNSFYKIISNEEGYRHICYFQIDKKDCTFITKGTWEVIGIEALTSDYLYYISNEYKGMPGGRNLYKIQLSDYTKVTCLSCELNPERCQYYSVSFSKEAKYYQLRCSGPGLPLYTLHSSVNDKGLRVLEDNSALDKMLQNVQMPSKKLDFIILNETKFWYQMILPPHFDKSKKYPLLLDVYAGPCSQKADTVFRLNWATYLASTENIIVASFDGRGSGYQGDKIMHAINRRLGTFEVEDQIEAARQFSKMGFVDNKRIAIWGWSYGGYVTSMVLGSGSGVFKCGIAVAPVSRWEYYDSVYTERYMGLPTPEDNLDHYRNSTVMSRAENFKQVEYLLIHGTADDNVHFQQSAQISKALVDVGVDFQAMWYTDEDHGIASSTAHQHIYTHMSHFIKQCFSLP

Row | IC50 | Structure (SMILES)
1 | 277 µM | N=C(N)NCCC[C@H](NC(=O)[C@@H](N)Cc1c[nH]c2ccccc12)C(=O)N[C@@H](Cc1c[nH]cn1)C(=O)O [WRH] (H-Trp-Arg-His-OH)
2 | 343 µM | CC(C)[C@H](NC(=O)[C@@H](N)Cc1c[nH]c2ccccc12)C(=O)N[C@@H](CC(=O)O)C(=O)O [WVD] (H-Trp-Val-Asp-OH)
3 | 232 µM | CC(C)[C@H](NC(=O)[C@@H](N)Cc1c[nH]c2ccccc12)C(=O)N[C@@H](CS)C(=O)O [WVC] (H-Trp-Val-Cys-OH)
4 | 336 µM | CC(C)[C@H](NC(=O)[C@@H](N)Cc1c[nH]c2ccccc12)C(=O)N[C@H](C(=O)O)[C@@H](C)O [WVT] (H-Trp-Val-Thr-OH)
5 | 160 µM | N=C(N)NCCC[C@H](NC(=O)[C@@H](N)Cc1c[nH]c2ccccc12)C(=O)N[C@@H](CCC(=O)O)C(=O)O [WRE] (H-Trp-Arg-Glu-OH)
6 | 317 µM | CSCC[C@H](NC(=O)[C@@H](NC(=O)[C@@H](N)Cc1c[nH]c2ccccc12)C(C)C)C(=O)O [WVM] (H-Trp-Val-Met-OH)
7 | 313 µM | N=C(N)NCCC[C@H](NC(=O)[C@@H](N)Cc1c[nH]c2ccccc12)C(=O)N[C@@H](CC(N)=O)C(=O)O [WRN] (H-Trp-Arg-Asn-OH)
8 | 265 µM | N=C(N)NCCC[C@H](NC(=O)[C@@H](N)Cc1c[nH]c2ccccc12)C(=O)N[C@@H](CO)C(=O)O [WRS] (H-Trp-Arg-Ser-OH)
9 | 247 µM | CC(C)[C@H](NC(=O)[C@@H](N)Cc1c[nH]c2ccccc12)C(=O)N[C@@H](CO)C(=O)O [WVS] (H-Trp-Val-Ser-OH)
10 | 275 µM | CC(C)[C@H](NC(=O)[C@@H](NC(=O)[C@@H](N)Cc1c[nH]c2ccccc12)C(C)C)C(=O)O [WVV] (H-Trp-Val-Val-OH)
11 | 215 µM | CC(C)[C@H](NC(=O)[C@@H](N)Cc1c[nH]c2ccccc12)C(=O)N[C@@H](Cc1ccc(O)cc1)C(=O)O [WVY] (H-Trp-Val-Tyr-OH)
12 | 286 µM | N=C(N)NCCC[C@H](NC(=O)[C@@H](N)Cc1c[nH]c2ccccc12)C(=O)N[C@@H](CCC(N)=O)C(=O)O [WRQ] (H-Trp-Arg-Gln-OH)
13 | 402 µM | CC(C)[C@H](NC(=O)[C@@H](N)Cc1c[nH]c2ccccc12)C(=O)N1CCC[C@H]1C(=O)O [WVP] (H-Trp-Val-Pro-OH)
14 | 330 µM | CC[C@H](C)[C@H](NC(=O)[C@H](CCCNC(=N)N)NC(=O)[C@@H](N)Cc1c[nH]c2ccccc12)C(=O)O [WRI] (H-Trp-Arg-Ile-OH)
15 | 897 µM | CSCC[C@H](NC(=O)[C@H](CCCNC(=N)N)NC(=O)[C@@H](N)Cc1c[nH]c2ccccc12)C(=O)O [WRM] (H-Trp-Arg-Met-OH)
16 | 373 µM | CC(C)[C@H](NC(=O)[C@@H](N)Cc1c[nH]c2ccccc12)C(=O)N[C@@H](CC(N)=O)C(=O)O [WVN] (H-Trp-Val-Asn-OH)
17 | 341 µM | CC(C)[C@H](NC(=O)[C@@H](N)Cc1c[nH]c2ccccc12)C(=O)NCC(=O)O [WVG] (H-Trp-Val-Gly-OH)
18 | 204 µM | N=C(N)NCCC[C@H](NC(=O)[C@@H](N)Cc1c[nH]c2ccccc12)C(=O)N[C@@H](CC(=O)O)C(=O)O [WRD] (H-Trp-Arg-Asp-OH)
19 | 239 µM | CC(C)[C@H](NC(=O)[C@@H](N)Cc1c[nH]c2ccccc12)C(=O)N[C@@H](Cc1c[nH]c2ccccc12)C(=O)O [WVW] (H-Trp-Val-Trp-OH)
20 | 193 µM | CC(C)[C@H](NC(=O)[C@@H](N)Cc1c[nH]c2ccccc12)C(=O)N[C@@H](CCC(=O)O)C(=O)O [WVE] (H-Trp-Val-Glu-OH)
21 | 270 µM | N=C(N)NCCC[C@H](NC(=O)[C@@H](N)Cc1c[nH]c2ccccc12)C(=O)NCC(=O)O [WRG] (H-Trp-Arg-Gly-OH)
22 | 556 µM | C[C@@H](O)[C@H](NC(=O)[C@H](CCCNC(=N)N)NC(=O)[C@@H](N)Cc1c[nH]c2ccccc12)C(=O)O [WRT] (H-Trp-Arg-Thr-OH)
23 | 257 µM | N=C(N)NCCC[C@H](NC(=O)[C@@H](N)Cc1c[nH]c2ccccc12)C(=O)N[C@@H](Cc1ccccc1)C(=O)O [WRF] (H-Trp-Arg-Phe-OH)
24 | 541 µM | CC(C)[C@H](NC(=O)[C@H](CCCNC(=N)N)NC(=O)[C@@H](N)Cc1c[nH]c2ccccc12)C(=O)O [WRV] (H-Trp-Arg-Val-OH)
25 | 742 µM | N=C(N)NCCC[C@H](NC(=O)[C@@H](N)Cc1c[nH]c2ccccc12)C(=O)N1CCC[C@H]1C(=O)O [WRP] (H-Trp-Arg-Pro-OH)
26 | 151 µM | CC(C)C[C@H](NC(=O)[C@H](CCCNC(=N)N)NC(=O)[C@@H](N)Cc1c[nH]c2ccccc12)C(=O)O [WRL] (H-Trp-Arg-Leu-OH)
27 | 331 µM | CC(C)[C@H](NC(=O)[C@@H](N)Cc1c[nH]c2ccccc12)C(=O)N[C@@H](CCCCN)C(=O)O [WVK] (H-Trp-Val-Lys-OH)
28 | 341 µM | CC(C)[C@H](NC(=O)[C@@H](N)Cc1c[nH]c2ccccc12)C(=O)N[C@@H](C)C(=O)O [WVA] (H-Trp-Val-Ala-OH)

Continued, compound first:

Row | Structure (SMILES) | IC50
29 | C[C@H](NC(=O)[C@@H](N)Cc1c[nH]c2ccccc12)C(=O)NCC(=O)O [WAG] (H-Trp-Ala-Gly-OH) | 352 µM
30 | N[C@@H](Cc1c[nH]c2ccccc12)C(=O)N1CCC[C@H]1C(=O)N[C@@H](CC(=O)O)C(=O)O [WPD] (H-Trp-Pro-Asp-OH) | 481 µM
31 | NC(=O)C[C@H](NC(=O)[C@@H]1CCCN1C(=O)[C@@H](N)Cc1c[nH]c2ccccc12)C(=O)O [WPN] (H-Trp-Pro-Asn-OH) | 129 µM
32 | CC[C@H](C)[C@H](NC(=O)[C@H](C)NC(=O)[C@@H](N)Cc1c[nH]c2ccccc12)C(=O)O [WAI] (H-Trp-Ala-Ile-OH) | 199 µM
33 | C[C@H](NC(=O)[C@@H](N)Cc1c[nH]c2ccccc12)C(=O)N1CCC[C@H]1C(=O)O [WAP] (H-Trp-Ala-Pro-OH) | 441 µM
34 | N[C@@H](Cc1c[nH]c2ccccc12)C(=O)N1CCC[C@H]1C(=O)N[C@@H](Cc1ccc(O)cc1)C(=O)O [WPY] (H-Trp-Pro-Tyr-OH) | 304 µM
35 | N[C@@H](Cc1c[nH]c2ccccc12)C(=O)N1CCC[C@H]1C(=O)NCC(=O)O [WPG] (H-Trp-Pro-Gly-OH) | 135 µM
36 | C[C@H](NC(=O)[C@@H](N)Cc1c[nH]c2ccccc12)C(=O)N[C@@H](CC(=O)O)C(=O)O [WAD] (H-Trp-Ala-Asp-OH) | 433 µM
37 | N[C@@H](Cc1c[nH]c2ccccc12)C(=O)N1CCC[C@H]1C(=O)N[C@@H](Cc1c[nH]c2ccccc12)C(=O)O [WPW] (H-Trp-Pro-Trp-OH) | 183 µM
38 | C[C@H](NC(=O)[C@@H](N)Cc1c[nH]c2ccccc12)C(=O)N[C@@H](CCC(=O)O)C(=O)O [WAE] (H-Trp-Ala-Glu-OH) | 462 µM
39 | CC(C)[C@H](NC(=O)[C@H](C)NC(=O)[C@@H](N)Cc1c[nH]c2ccccc12)C(=O)O [WAV] (H-Trp-Ala-Val-OH) | 250 µM
40 | C[C@H](NC(=O)[C@@H](N)Cc1c[nH]c2ccccc12)C(=O)N[C@@H](Cc1c[nH]c2ccccc12)C(=O)O [WAW] (H-Trp-Ala-Trp-OH) | 104 µM
41 | C[C@H](NC(=O)[C@@H](N)Cc1c[nH]c2ccccc12)C(=O)N[C@@H](CCC(N)=O)C(=O)O [WAQ] (H-Trp-Ala-Gln-OH) | 289 µM
42 | C[C@H](NC(=O)[C@@H](N)Cc1c[nH]c2ccccc12)C(=O)N[C@@H](Cc1c[nH]cn1)C(=O)O [WAH] (H-Trp-Ala-His-OH) | 190 µM
43 | C[C@H](NC(=O)[C@@H](N)Cc1c[nH]c2ccccc12)C(=O)N[C@@H](CS)C(=O)O [WAC] (H-Trp-Ala-Cys-OH) | 283 µM
44 | C[C@H](NC(=O)[C@@H](N)Cc1c[nH]c2ccccc12)C(=O)N[C@@H](CCCNC(=N)N)C(=O)O [WAR] (H-Trp-Ala-Arg-OH) | 665 µM
45 | C[C@H](NC(=O)[C@H](C)NC(=O)[C@@H](N)Cc1c[nH]c2ccccc12)C(=O)O [WAA] (H-Trp-Ala-Ala-OH) | 275 µM

Row | Structure (SMILES) | IC50
46 | N=C(N)NCCC[C@H](NC(=O)[C@@H](N)Cc1c[nH]c2ccccc12)C(=O)N[C@@H](CS)C(=O)O [WRC] (H-Trp-Arg-Cys-OH) | 210 µM
47 | N[C@@H](Cc1c[nH]c2ccccc12)C(=O)N1CCC[C@H]1C(=O)N[C@@H](CCC(=O)O)C(=O)O [WPE] (H-Trp-Pro-Glu-OH) | 353 µM
48 | C[C@H](NC(=O)[C@H](CCCNC(=N)N)NC(=O)[C@@H](N)Cc1c[nH]c2ccccc12)C(=O)O [WRA] (H-Trp-Arg-Ala-OH) | 535 µM
49 | N[C@@H](Cc1c[nH]c2ccccc12)C(=O)N1CCC[C@H]1C(=O)N[C@@H](CS)C(=O)O [WPC] (H-Trp-Pro-Cys-OH) | 739 µM
50 | N=C(N)NCCC[C@H](NC(=O)[C@@H]1CCCN1C(=O)[C@@H](N)Cc1c[nH]c2ccccc12)C(=O)O [WPR] (H-Trp-Pro-Arg-OH) | 209 µM
51 | C[C@H](NC(=O)[C@@H](N)Cc1c[nH]c2ccccc12)C(=O)N[C@@H](Cc1ccc(O)cc1)C(=O)O [WAY] (H-Trp-Ala-Tyr-OH) | 117 µM
52 | NC(=O)CC[C@H](NC(=O)[C@@H]1CCCN1C(=O)[C@@H](N)Cc1c[nH]c2ccccc12)C(=O)O [WPQ] (H-Trp-Pro-Gln-OH) | 196 µM
53 | CSCC[C@H](NC(=O)[C@@H]1CCCN1C(=O)[C@@H](N)Cc1c[nH]c2ccccc12)C(=O)O [WPM] (H-Trp-Pro-Met-OH) | 219 µM
54 | CC[C@H](C)[C@H](N)C(=O)N1CCC[C@H]1C(=O)N[C@H](C(=O)N1CCC[C@H]1C(=O)N[C@H](C(=O)O)[C@@H](C)CC)[C@@H](C)CC [IPIPI] (H-IPIPI-OH) | 47.5 µM
55 | CC(C)[C@H](NC(=O)[C@@H]1CCCN1C(=O)[C@@H](N)Cc1c[nH]c2ccccc12)C(=O)O [WPV] (H-Trp-Pro-Val-OH) | 511 µM
56 | CSCC[C@H](NC(=O)[C@H](C)NC(=O)[C@@H](N)Cc1c[nH]c2ccccc12)C(=O)O [WAM] (H-Trp-Ala-Met-OH) | 330 µM
57 | N[C@@H](Cc1c[nH]c2ccccc12)C(=O)N1CCC[C@H]1C(=O)N[C@@H](CO)C(=O)O [WPS] (H-Trp-Pro-Ser-OH) | 588 µM
58 | C[C@H](NC(=O)[C@@H](N)Cc1c[nH]c2ccccc12)C(=O)N[C@@H](Cc1ccccc1)C(=O)O [WAF] (H-Trp-Ala-Phe-OH) | 153 µM
59 | C[C@H](NC(=O)[C@@H](N)Cc1c[nH]c2ccccc12)C(=O)N[C@H](C(=O)O)[C@@H](C)O [WAT] (H-Trp-Ala-Thr-OH) | 296 µM
60 | CC(C)C[C@H](NC(=O)[C@@H]1CCCN1C(=O)[C@@H](N)Cc1c[nH]c2ccccc12)C(=O)O [WPL] (H-Trp-Pro-Leu-OH) | 461 µM
61 | C[C@@H](O)[C@H](NC(=O)[C@@H]1CCCN1C(=O)[C@@H](N)Cc1c[nH]c2ccccc12)C(=O)O [WPT] (H-Trp-Pro-Thr-OH) | 435 µM
